Measured values taken from patent publication US20110206720A1, “ANTI-INFLAMMATORY USAGE OF ANTRODIA CINNAMOMEA FRUIT BODY DERIVATIVES” (Taiwan Leader Biotech Corp, priority 2010, published 2011).

Legend:
Assay type in all cases: cell-based, mice
[1] = tested on: macrophage RAW 267.4; experiment: LPS-elicited NO production in macrophage RAW 267.4, nitrite by Griess reaction; design: unit not given here; settings: then LPS 1 g/ml 24 hours
Method: (§1) The invention chooses the macrophage RAW 267.4 of mice for the discussion about the production of NO and prostaglandin-E2 (PGE2). For the culture of RAW 267.4 cell, firstly inoculate RAW 267.4 macrophages growing in the culture plate (75 cm^2) in 96-well plate in the density of 2×10^5 cells/well and then culture them in the incubator (37° C., 5% CO2). DMEM culture medium is selected according to the recommendation of ATCC (American TypeCulture Collection), with 10% fetal bovine serum (FBS), penicillin (100 units/ml) and streptomycin ([…]) added.
Firstly, RAW 267.4 is cultured as detailed in Experiment I and divided into three groups: group 1 (ACE), group 2 (ACE-EA) and group 3 (ACE-water). For each group, add said ACE, ACE-EA and ACE-water of different concentrations (1, 10, 25, 50 g/ml) in the culture medium, add LPS to elicit RAW267.4 producing NO, and measure the content of nitrite after 24 hours by Griess reaction to indirectly measure the amount of NO.
NO activity inhibition tests are conducted on RAW 267.4 macrophages (see reference in Cell culture, Experiment I) to 17 fractions respectively. Firstly, divide RAW 267.4 cells into 17 groups, add 17 fractions (50 g/ml) in the culture medium, and then add LPS (1 g/ml) to elicit the production of NO. 24 hours later, Griess reaction is conducted to measure the content of nitrites and thus indirectly measuring the production of NO and calculating the inhibition rate of NO.
In the experiment of production of NO, firstly RAW 267.4 cells are cultured as Experiment I states, handled for 1 hour in antrocamphin A (1, 5, 10, 20 g/ml) or curcumin (10 g/ml), and then processed for 24 hours with LPS (1 g/ml). Then, Griess reaction is conducted to measure the content of nitrites and thus indirectly obtaining the production of NO.

[2] = tested on: macrophage RAW 267.4; experiment: LPS-elicited prostaglandin-E2 (PGE2) production in macrophage RAW 267.4, ELISA; design: unit not given here; settings: RAW 267.4, aspirin 3 hours, then LPS 1 g/ml 16 hours
Method: as §1
In the experiment for measuring the production of prostaglandin-E2 (PGE2), firstly RAW 267.4 cells are cultured as Experiment I states and […] aspirin is added in the culture medium for 3 hours so that the endogenous COX-1 is deactivated. Then, they are handled for 1 hour in antrocamphin A (1, 5, 10, 20 g/ml) or curcumin (10 g/ml) and processed for 16 hours with LPS (1 g/ml). Finally, supernatant liquid in the cell culture is measured by ELISA kit (Cayman Chemicals) so as to get the production of prostaglandin-E2 (PGE2) in endogenous arachidonic acid.

[3] = tested on: macrophage RAW 267.4; experiment: MTT test of toxicity to cells (cell survival rate)
Method: The invention chooses the macrophage RAW 267.4 of mice for the discussion about the production of NO and prostaglandin-E2 (PGE2). For the culture of RAW 267.4 cell, firstly inoculate RAW 267.4 macrophages growing in the culture plate (75 cm^2) in 96-well plate in the density of 2×10^5 cells/well and then culture them in the incubator (37° C., 5% CO2). DMEM culture medium is selected according to the recommendation of ATCC (American TypeCulture Collection), with 10% fetal bovine serum (FBS), penicillin (100 units/ml) and streptomycin ([…]) added. In addition, the familiar MTT is utilized to test the toxicity of Antrocamphin A to cells. Said MTT is a method for detecting cell survival rate or cell proliferation in biology on principle that succinate dehydrogenase in the mitochondria of live cell metabolizes tetrazolium of MTT to be blue products. After DMSO is added to resolve the blue metabolized products accumulated in cells, the amount of blue metabolized products is measured by spectrometer to indirectly calculate the number of live cells.

[4] = tested on: mRNA of iNOS; experiment: iNOS mRNA expression in LPS-treated RAW 267.4, RT-PCR; settings: RAW 267.4, LPS; dose-dependent, higher dose; FIG. 4A
Method: (§2) Trizol reagent (Invitrogen Life Technologies, Carlsbad, Calif., USA) is used to extract the total RNA of macrophages. mRNA of iNOS, COX-2 and G3PDH is reversely transcribed to be cDNA by the RT-PCR, and then the expression of iNOS, COX-2 and G3PDH are quantified with the real time-PCR (Applied Biosystems).
(§3) Said real time-PCR detects the PCR products by DNA binding SYBR Green. The thermal cycles are: 95° C., 5 min, 1 min for 40 cycles at 95° C., 45 s for 55° C., and 30 s for 72° C. The sequence of primers is: iNOS forward 5′-TCC TAC ACC ACA CCA AAC-3′; iNOS reverse 5′-CTC CAA TCT CTG CCT ATC C-3′; COX-2 forward 5′-CCT CTG CGA TGC TCT TCC-3′, COX-2 reverse 5′-TCACACTTATACTGGTCAAATCC-3′, G3PDH forward 5′-TCA ACG GCA CAG TCA AGG-3′; G3PDH reverse 5′-ACT CCA CGA CAT ACT CAG C-3′. G3PDH are housekeeping genes which are genes with stable and large number of expression in cells and are used to standardize the expression of iNOS and COX-2 in the experiment.
(§4) In addition, total RNA and total protein are extracted from each group of macrophages. According to the paragraphs of RT-PCR and western blot analysis in Experiment I, the expression of iNOS and COX-2 are evaluated from the perspectives of mRNA and protein.

[5] = tested on: mRNA of COX-2; experiment: COX-2 mRNA expression in LPS-treated RAW 267.4, RT-PCR; settings: RAW 267.4, LPS; dose-dependent, higher dose; FIG. 4B
Method: as §2, §3, §4

[6] = tested on: iNOS; experiment: iNOS protein expression in LPS-treated RAW 267.4, western blot; settings: RAW 267.4, LPS; dose-dependent, especially at […]; FIG. 5A
Method: (§5) After getting the total protein of macrophages, add the equal amount of protein in 5˜7% SDS-PAGE, resolve for 90 m at 300 mA, blotting (100V, 1 hour) proteins resolved in different sizes to polyvinylidene difluoride (PVDF, Immobilon, Millipore, Bedford, Mass.), and then put PVDF in the blocking buffer (10% w/v skim milk powder in TBST) for 1 hour.
(§6) Then, dip PVDF in the anti-iNOS solution (1:1000, Cayman Chemicals) and clean twice with 0.1% TBST buffer (TBS buffer containing 0.1% Tween 20) to clear the non-specific bonded antibody and antigen.
(§7) Next, dip PVDF in the anti-rabbit secondary antibodies solution with horseradish peroxidase, detect the fluorescence density of each group by enhanced chemiluminescene regents (ECL, Pierce), and take the expression of β-actin as the reference group.
as §4

[7] = tested on: COX-2; experiment: COX-2 protein expression in LPS-treated RAW 267.4, western blot; settings: RAW 267.4, LPS; dose-dependent, especially at 20 µg/ml; FIG. 5B
Method: as §5, §6, §7, §4

Q: With `C=C(C)C#Cc1c(OC)cc(OC)c(OC)c1C` [antrocamphin A, Antrocamphin A] as the compound, how does the “Production of NO (M)” value ([1]; RAW 267.4, 1 g/ml for 1 hour) read?
A: 18 ± 0.36

Q: And the “Production of NO (M)” value ([1]; RAW 267.4, 5 g/ml for 1 hour)?
A: 14.68 ± 0.54

Q: What about the “Production of NO (M)” value ([1]; RAW 267.4, 10 g/ml for 1 hour) of the same compound?
A: 11.14 ± 0.18

Q: What about the “Production of NO (M)” value ([1]; RAW 267.4, 20 g/ml for 1 hour) of the same compound?
A: 7.27 ± 0.18

Q: And the “Production of prostaglandin-E2 (PGE2)” value ([2]; 1 g/ml for 1 hour)?
A: 411.5 ± 20.92

Q: And the “Production of prostaglandin-E2 (PGE2)” value ([2]; 5 g/ml for 1 hour)?
A: 360.9 ± 23.95

Q: And the “Production of prostaglandin-E2 (PGE2)” value ([2]; 10 g/ml for 1 hour)?
A: 237.96 ± 83.85

Q: And the “Production of prostaglandin-E2 (PGE2)” value ([2]; 20 g/ml for 1 hour)?
A: 24.62 ± 15.36

Q: And the “Cell survival rate (%)” value ([3]; MTT, RAW 267.4, 1 g/ml, with LPS)?
A: 93 ± 4.13%

Q: What about the “Cell survival rate (%)” value ([3]; MTT, RAW 267.4, 5 g/ml, with LPS) of the same compound?
A: 92 ± 5.49%

Q: What about the “Cell survival rate (%)” value ([3]; MTT, RAW 267.4, 10 g/ml, with LPS) of the same compound?
A: 89 ± 3.22%

Q: What about the “Cell survival rate (%)” value ([3]; MTT, RAW 267.4, 20 g/ml, with LPS) of the same compound?
A: 79 ± 3.54%

Q: And the “expression of mRNA of iNOS” value [4]?
A: effectively reduce the amount of mRNA of iNOS and COX-2

Q: And the “expression of mRNA of COX-2” value [5]?
A: effectively reduce the amount of mRNA of iNOS and COX-2

Q: And the “expression of iNOS (protein)” value [6]?
A: effectively reduce the expression of iNOS and COX-2

Q: And the “expression of COX-2 (protein)” value [7]?
A: effectively reduce the expression of iNOS and COX-2

Q: Which results are given for `COc1cc(/C=C/C(=O)CC(=O)/C=C/c2ccc(O)c(OC)c2)ccc1O` [curcumin, reference compound]?
A: Production of prostaglandin-E2 (PGE2) ([2]; 10 g/ml for 1 hour): 6.82 ± 5.2; Cell survival rate (%) ([3]; mouse, 10 g/ml): 76 ± 4.6%
